# Source: patent US12441722B2, “Therapeutic agents and methods of treatment” (University of Florida Research Foundation, Incorporated, priority 2020, dated 2025)
# Test system: MOLT-4
# Test: Cell viability assay (tetrazolium-based MTS) in MOLT4 cells
# Settings: Homo sapiens, MOLT-4, MOLT4 acute lymphoblastic leukemia cells, 48 h incubation
# Experimental: Cancer cells from acute lymphoblastic leukemia (MOLT4) were incubated with increasing concentrations of compounds of Examples 1-9 for 48 h. Cell viability was measured by tetrazolium-based MTS assay. 5×10^4 to 1×10^5 suspension cells or 3×10^3 to 5×10^3 adherent cells were seeded and treated in 96-well plates for 48 h. The EC50 values of individual agents were calculated with GraphPad Prism.
row,EC50,SMILES
1,10 to 100 nM,"Cc1ncsc1-c1ccc([C@H](CC(=O)NCCCCNC(=O)c2nc(N3CCc4cccc(C(=O)Nc5nc6ccccc6s5)c4C3)ccc2-c2cnn(CC34CC5CC(CC(C5)C3)C4)c2C)NC(=O)[C@@H]2C[C@@H](O)CN2C(=O)[C@@H](NC(=O)C2(C#N)CC2)C(C)(C)C)cc1 [degrader #22, 2-(5-(1-(adamantan-1-ylmethyl)-5-methyl-1H-pyrazol-4-yl)-6-((4-((S)-3-((2S,4R)-1-((S)-2-(1-cyanocyclopropane-1-carboxamido)-3,3-dimethylbutanoyl)-4-hydroxypyrrolidine-2-carboxamido)-3-(4-(4-methylthiazol-5-yl)phenyl)propanamido)butyl)carbamoyl)pyridin-2-yl)-N-(benzo[d]thiazol-2-yl)-1,2,3,4-tetrahydroisoquinoline-8-carboxamide]"
2,< 10 nM,"Cc1ncsc1-c1ccc([C@H](C)NC(=O)[C@@H]2C[C@@H](O)CN2C(=O)[C@@H](NC(=O)CCCCCS(=O)(=O)NC(=O)c2nc(N3CCc4cccc(C(=O)Nc5nc6ccccc6s5)c4C3)ccc2-c2cnn(CC34CC5CC(CC(C5)C3)C4)c2C)C(C)(C)C)cc1 [degrader #11, 2-(5-(1-(adamantan-1-ylmethyl)-5-methyl-1H-pyrazol-4-yl)-6-(((6-(((S)-1-((2S,4R)-4-hydroxy-2-(((S)-1-(4-(4-methylthiazol-5-yl)phenyl)ethyl)carbamoyl)pyrrolidin-1-yl)-3,3-dimethyl-1-oxobutan-2-yl)amino)-6-oxohexyl)sulfonyl)carbamoyl)pyridin-2-yl)-N-(benzo[d]thiazol-2-yl)-1,2,3,4-tetrahydroisoquinoline-8-carboxamide]"
3,10 to 100 nM,"Cc1ncsc1-c1ccc([C@H](C)NC(=O)[C@@H]2C[C@@H](O)CN2C(=O)[C@@H](NC(=O)CCCCCCCCCS(=O)(=O)NC(=O)c2nc(N3CCc4cccc(C(=O)Nc5nc6ccccc6s5)c4C3)ccc2-c2cnn(CC34CC5CC(CC(C5)C3)C4)c2C)C(C)(C)C)cc1 [degrader #15, 2-(5-(1-(adamantan-1-ylmethyl)-5-methyl-1H-pyrazol-4-yl)-6-(((10-(((S)-1-((2S,4R)-4-hydroxy-2-(((S)-1-(4-(4-methylthiazol-5-yl)phenyl)ethyl)carbamoyl)pyrrolidin-1-yl)-3,3-dimethyl-1-oxobutan-2-yl)amino)-10-oxodecyl)sulfonyl)carbamoyl)pyridin-2-yl)-N-(benzo[d]thiazol-2-yl)-1,2,3,4-tetrahydroisoquinoline-8-carboxamide]"

# Same assay, conditions: MOLT4 acute lymphoblastic leukemia cells, 48 h incubation
row,EC50,SMILES
1,< 10 nM,"Cc1c(-c2ccc(N3CCc4cccc(C(=O)Nc5nc6ccccc6s5)c4C3)nc2C(=O)NCCOCCOCCOCC#Cc2ccc3c(c2)CN(C2CCC(=O)NC2=O)C3=O)cnn1CC12CC3CC(CC(C3)C1)C2 (stereo not shown) [degrader #29, 2-(5-(1-(adamantan-1-ylmethyl)-5-methyl-1H-pyrazol-4-yl)-6-((2-(2-(2-((3-(2-(2,6-dioxopiperidin-3-yl)-1-oxoisoindolin-5-yl)prop-2-yn-1-yl)oxy)ethoxy)ethoxy)ethyl)carbamoyl)pyridin-2-yl)-N-(benzo[d]thiazol-2-yl)-1,2,3,4-tetrahydroisoguinoline-8-carboxamide]"
2,< 10 nM,"Cc1ncsc1-c1ccc([C@H](C)NC(=O)[C@@H]2C[C@@H](O)CN2C(=O)[C@@H](NC(=O)CCCCCCS(=O)(=O)NC(=O)c2nc(N3CCc4cccc(C(=O)Nc5nc6ccccc6s5)c4C3)ccc2-c2cnn(CC34CC5CC(CC(C5)C3)C4)c2C)C(C)(C)C)cc1 [degrader #12, 2-(5-(1-(adamantan-1-ylmethyl)-5-methvl-1H-pyrazol-4-yl)-6-(((7-(((S)-1-((2S,4R)-4-hydroxy-2-(((S)-1-(4-(4-methylthiazol-5-yl)phenyl)ethyl)carbamoyl)pyrrolidin-1-yl)-3,3-dimethyl-1-oxobutan-2-yl)amino)-7-oxoheptyl)sulfonyl)carbamol)pyridin-2-yl)-N-(benzo[d]thiazol-2-yl)-1,2,3,4-tetrahydroisoquinoline-8-carboxamide]"
3,< 10 nM,"Cc1c(-c2ccc(N3CCc4cccc(C(=O)Nc5nc6ccccc6s5)c4C3)nc2C(=O)O)cnn1CC12CC3CC(C1)CC(C(=O)NCCCCCCCCNc1cccc4c1C(=O)N(C1CCC(=O)NC1=O)C4=O)(C3)C2 (stereo not shown) [degrader #36, 6-(8-(benzo[d]thiazol-2-ylcarbamoyl)-3,4-dihydroisoquinolin-2(1H)-yl)-3-(1-(((1r,3r)-3-((8-((2-(2,6-dioxopiperidin-3-yl)-1,3-dioxoisoindolin-4-yl)amino)octyl)carbamoyl)adamantan-1-yl)methyl)-5-methyl-1H-pyrazol-4-yl)picolinic acid]"
4,10 to 100 nM,"Cc1ncsc1-c1ccc([C@H](C)NC(=O)[C@@H]2C[C@@H](O)CN2C(=O)[C@@H](NC(=O)CCCCCCCCCCCS(=O)(=O)NC(=O)c2nc(N3CCc4cccc(C(=O)Nc5nc6ccccc6s5)c4C3)ccc2-c2cnn(CC34CC5CC(CC(C5)C3)C4)c2C)C(C)(C)C)cc1 [degrader #17, 2-(5-(1-(adamantan-1-ylymethyl)-5-methyl-1H-pyrazol-4-yl)-6-(((12-(((S)-1-((2S,4R)-4-hydroxy-2-(((S)-1-(4-(4-methylthiazol-5-yl)phenyl)ethyl)carbamoyl)pyrrolidin-1-yl)-3,3-dimethyl-1-oxobutan-2-yl)amino)-12-oxododecyl)sulfonyl)carbamoyl)pyridin-2-yl)-N-(benzo[d]thiazol-2-yl)-1,2,3,4-tetrahydroisoquinoline-8-carboxamide]"
5,10 to 100 nM,"Cc1c(-c2ccc(N3CCc4cccc(C(=O)Nc5nc6ccccc6s5)c4C3)nc2C(=O)O)cnn1CC12CC3CC(C1)CC(C(=O)NCCCCCCCCCCNc1cccc4c1C(=O)N(C1CCC(=O)NC1=O)C4=O)(C3)C2 (stereo not shown) [degrader #37, 6-(8-(benzo[d]thiazol-2-ylcarbamoyl)-3,4-dihydroisoquinolin-2(1H)-yl)-3-(1-(((1r,3r)-3-((10-((2-(2,6-dioxopiperidin-3-yl)-1,3-dioxoisoindolin-4-yl)amino)decyl)carbamoyl)adamantan-1-yl)methyl)-5-methyl-1H-pyrazol-4-yl)picolinic acid]"
6,< 10 nM,Cc1c(-c2ccc(N3CCc4cccc(C(=O)Nc5nc6ccccc6s5)c4C3)nc2C(=O)NCCOCCOCCOCCCc2cccc3c2CN(C2CCC(=O)NC2=O)C3=O)cnn1CC12CC3CC(CC(C3)C1)C2 (stereo not shown) [degrader #32]
7,< 10 nM,"Cc1c(-c2ccc(N3CCc4cccc(C(=O)Nc5nc6ccccc6s5)c4C3)nc2C(=O)NCCOCCOCCOCC#Cc2cccc3c2CN(C2CCC(=O)NC2=O)C3=O)cnn1CC12CC3CC(CC(C3)C1)C2 (stereo not shown) [degrader #28, 2-(5-(1-(adamantan-1-ylmethyl)-5-methyl-1H-pyrazol-4-yl)-6-((2-(2-(2-((3-(2-(2,6-dioxopiperidin-3-yl)-1-oxoisoindolin-4-yl)prop-2-yn-1-yl)oxy)ethoxy)ethoxy)ethyl)carbamoyl)pyridin-2-yl)-N-(benzo[d]thiazol-2-yl)-1,2,3,4-tetrahydroisoguinoline-8-carboxamide]"
8,10 to 100 nM,"Cc1c(-c2ccc(N3CCc4cccc(C(=O)Nc5nc6ccccc6s5)c4C3)nc2C(=O)O)cnn1CC12CC3CC(C1)CC(C(=O)NCCOCCNc1cccc4c1C(=O)N(C1CCC(=O)NC1=O)C4=O)(C3)C2 (stereo not shown) [degrader #39, 6-(8-(benzo[d]thiazol-2-ylcarbamoyl)-3,4-dihydroisoquinolin-2(1H)-yl)-3-(1-(((1r,3r)-3-((2-(2-((2-(2,6-dioxopiperidin-3-yl)-1,3-dioxoisoindolin-4-yl)amino)ethoxy)ethyl)carbamoyl)adamantan-1-yl)methyl)-5-methyl-1H-pyrazol-4-yl)picolinic acid]"
9,10 to 100 nM,"Cc1c(-c2ccc(N3CCc4cccc(C(=O)Nc5nc6ccccc6s5)c4C3)nc2C(=O)NCCOCCOCCOCC#Cc2cccc3c2C(=O)N(C2CCC(=O)NC2=O)C3=O)cnn1CC12CC3CC(CC(C3)C1)C2 (stereo not shown) [degrader #26, 2-(5-(1-(adamantan-1-ylmethyl)-5-methyl-1H-pyrazol-4-yl)-6-((2-(2-(2-((3-(2-(2,6-dioxopiperidin-3-yl)-1,3-dioxoisoindolin-4-yl)prop-2-yn-1-yl)oxy)ethoxy)ethoxy)ethyl)carbamoyl)pyridin-2-yl)-N-(benzo[d]thiazol-2-yl)-1,2,3,4-tetrahydroisocuinoline-8-carboxamide]"
10,100 to 1000 nM,"Cc1ncsc1-c1ccc([C@H](C)NC(=O)[C@@H]2C[C@@H](O)CN2C(=O)[C@@H](NC(=O)CCCCCCNC(=O)C23CC4CC(CC(Cn5ncc(-c6ccc(N7CCc8cccc(C(=O)Nc9nc%10ccccc%10s9)c8C7)nc6C(=O)O)c5C)(C4)C2)C3)C(C)(C)C)cc1 [degrader #43, 6-(8-(benzo[d]thiazol-2-ylcarbamoyl)-3,4-dihydroisoquinolin-2(1H)-yl)-3-(1-(((1S,3r)-3-((7-(((S)-1-((2S,4R)-4-hydroxy-2-(((S)-1-(4-(4-methylthiazol-5-yl)phenyl)ethyl)carbamoyl)pyrrolidin-1-yl)-3,3-dimethyl-1-oxobutan-2-yl)amino)-7-oxoheptyl)carbamoyl)adamantan-1-yl)methyl)-5-methyl-1H-pyrazol-4-yl)picolinic acid]"
